What was measured:
MCF7 cells [1] = system: MCF7 cells
LNCaP cells = assay type: cell-based
[2] = system: Hsp90 derived from transformed cells overexpressing HER-2 (BT474, N87, SKOV3 and SKBR3); conditions: cited from earlier work
NCI 60-cell panel = conditions: read-out: Growth Inhibition of 50% (GI50); cited from earlier work
[3] = preclinical data; cited from earlier work
[4] = system: Hsc70 (constitutive form); test: Western blotting of Hsc70 in cancer cells; assay type: cell-based; conditions: HeLa and MCF7 cells
Description: (§1) FIGS. 2A-2F are autoradiographs of composite images of Western immuno-staining blots. […] FIGS. 2D-E show the Hsp90 client proteins HER2, GR, PRB, CDK4, Chk1, Raf-A, Akt and ILK, and the chaperones Hsp70, 2;3, Hsc70, HOP, HDJ2 (Hsp40), p23, Hsp90α and Hsp90β in the presence of DMSO, 2.5 μM 17AAG or 50, 100 or 200 μM capsaicin in HeLa cells (FIG. 2D) or MCF7 cells (FIG. 2E), respectively. In all blots, 2.5 μM 17-AAG was used as a positive control for cellular degradation of several kinases and hormone receptor clients of Hsp90, Beta actin (β-actin) was used a loading control. FIG. 2F is an autoradiograph of a Western blot showing capsaicin altered Hsp70 multi-chaperone complexes in cells. LNCaP cells were treated with 200 μM capsaicin for 6 h and then lysed, and Hsp70 complexes were pulled down using an antibody against Hsp70 on Protein A-Sepharose beads. Western blotting was performed for Hsp70, Hsp40 (HDJ-2), and Hsp90β. Capsaicin reduced Hsp40 and Hsp90 binding to Hsp70. Mouse IgG was used as a control.
(§2) Cells were lysed with buffer A (10 mM Tris pH 8.0, 137 mM NaCl, 10% glycerol, 1% Nonident P-40) supplemented with protease inhibitor cocktail (Roche Applied Science catalog no. 11 836 170 001) on ice for 30 minutes, shaking every 5 minutes. Lysate was centrifuged at 16,000×g for 10 minutes. 10 μg of clarified lysates were run on SDS-PAGE (10% gel) and transferred to PVDF membrane. […]

[5] = system: Hsp70 (inducible form, Hsp70i); test: Western blotting of Hsp70 in cancer cells; assay type: cell-based
LC3II and p62/SQSTM1 = test: Western blotting of autophagy markers; assay type: cell-based
[6] = purified capsaicin; cited from earlier work
MCF7 cells [7] = test: Microscopy (light, transmission electron) of capsaicin-treated MCF7 cells; assay type: cell-based
[8] = system: Hsp90/Hsp70 chaperoning machinery (rabbit reticulocyte lysate) with progesterone receptor; test: Progesterone receptor (PR) reconstitution assay: recovery of hormone binding activity of PR; assay type: biochemical
Description: To identify small molecule inhibitors of molecular chaperones, a high-throughput functional screen was developed based on the isoform A of progesterone receptor (PRA), a well-established physiological client of Hsp90, and using rabbit reticulocyte lysate (RRL) as a source of molecular chaperones. This comprehensive functional assay measured the recovery of hormone binding activity of PRA after mild heat treatment. Purified PR was adsorbed onto PR22 antibody bound to protein A that was absorbed on 96 well plates. 100 μl of RRL lysate and ATP regeneration system was added to each well. After incubation for 30 min at 30° C., 0.1 μM [3H]-progesterone (American Radiolabeled Chemicals, Inc #ART 0063) was added. Plates were incubated on ice for 2 h at 4° C. Complexes were then washed three times with 200 μl of reaction buffer (20 mM Tris/HCl, pH 7.5, 5 mM MgCl2, 2 mM DTT, 0.01% NP-40, 50 mM KCl and 5 mM ATP) and assessed for bound progesterone by liquid scintillation using PerkinElmer Microbeta plate reader.
PR complexes were reconstituted on a 96-well plate; the first eight samples contain the following internal controls: 1. Protein A alone, 2. Protein A+PR22, 3. Protein A+PR22+PR, 4. Protein A+PR22+PR+RRL, 5. Protein A+PR22+PR+RRL+17-AAG (20 μM), 6. Protein A+PR22+PR+RRL+Myrecetin (20 μM), 7. Protein A+PR22+PR+RRL+geldanamycin (20 μM), 8. Protein A+PR22+PR+RRL+gedunin (20 μM). […]

[9] = 5 mg/kg by gavage, three days per week for 2-4 weeks; cited from earlier work
Hsp40 = test: Fluorescence emission assay with Hsp40; assay type: binding; conditions: Hsp40 15 μM, capsaicin 7.5 μM, excitation 266 nm
Description: (§3) FIG. 5A is a histogram showing the ratio of Hsp70 mRNA relative to β-actin in the presence of DMSO, 100 μM or 200 μM capsaicin (Cap) after RT-PCR. FIG. 5B is a graph of fluorescence emission spectra for capsaicin, Hsp70, Hsp70 with capsaicin (Hsp70+C), Hsp90, Hsp90 with capsaicin (Hsp90+C), Hsp40 and Hsp40 with capsaicin (Hsp40+C), at wavelengths between 290 and 440 nm. All chaperones were tested at 15 μM and capsaicin at 7.5 μM. Proteins were incubated for 1 h at room temp in the presence or absence of capsaicin. An excitation wavelength of 266 nm was used.
(§4) To determine the effect of molecular chaperones on the fluorescence emission of capsaicin, all chaperones were tested at 15 μM and capsaicin at 7.5 μM concentrations. Proteins were incubated for 1 h at room temperature in the presence or absence of capsaicin. A 96-well black plate and a SAFIRE-TECAN plate reader were used. The excitation wavelength was 266 nm.

[10] = in vivo; cited from earlier work
Hsp90 = test: Fluorescence emission assay with Hsp90; assay type: binding; conditions: Hsp90 15 μM, capsaicin 7.5 μM, excitation 266 nm
Description: as §3, §4

[11] = system: cancer cells (LNCaP, MCF7, HepG2, HeLa); test: Colony formation assay; assay type: cell-based; conditions: 200 μM capsaicin for 24 h, 15 days growth
Text: FIG. 3A is a line graph of absorbance at 495 nm (arbitrary units) versus Capsaicin dose (μM) of Hs578Bst and MCF7 cells treated with the indicated dose of capsaicin. FIG. 3B is a line graph of absorbance at 495 nm versus time of capsaicin treatment (hours) of Hs578Bst cells and MCF7 cells. Stippled line represents Hs578Bst cells and solid line represents MCF7 cells. FIGS. 3C-F are histograms showing colony number versus treatment with DMSO or Capsaicin in the following cell lines: LNCaP (FIG. 3C), MCF7 (FIG. 3D), HepG2 (FIG. 3E), and HeLa (FIG. 3F). Cells were treated with 200 μM capsaicin for 24 h. Adherent cells were then collected and plated (1000 cells per 10 cm dish) for further incubation. The standard deviation of three dishes is shown as error bars. The experiment was reproduced twice. FIG. 3G is an autoradiograph of cell lysates HeLa, MCF7 and LNCaP treated with 200 μM capsaicin for 24 h; cell lysates were made and Western blotted for p62/SQSTM1 and LC3II. β-actin was used as a loading control. LNCaP cells were treated with 50, 100 and 200 μM capsaicin for 24 h. this experiment was reproduced twice. […] DMSO was used as a control.
Cells were grown in 6-well tissue culture plates to 60% confluence and treated with 200 μM capsaicin or DMSO control for 24 h. […] Cells were fixed with 6% Glutaraldehyde and 0.5% Crystal Violet, and colonies that contained 50 cells were counted. […]

[12] = biological target: T1, Hsp70 multi-chaperone complexes (Homo sapiens, UniProt P0DMV8); test: Hsp70 complex pull-down and Western blotting in LNCaP cells; assay type: cell-based; conditions: 200 μM capsaicin, 6 h
T1 construct: endogenous in cells; host or cells: LNCaP
T1 sequence (P0DMV8 2-641 limits assumed, one chain of several): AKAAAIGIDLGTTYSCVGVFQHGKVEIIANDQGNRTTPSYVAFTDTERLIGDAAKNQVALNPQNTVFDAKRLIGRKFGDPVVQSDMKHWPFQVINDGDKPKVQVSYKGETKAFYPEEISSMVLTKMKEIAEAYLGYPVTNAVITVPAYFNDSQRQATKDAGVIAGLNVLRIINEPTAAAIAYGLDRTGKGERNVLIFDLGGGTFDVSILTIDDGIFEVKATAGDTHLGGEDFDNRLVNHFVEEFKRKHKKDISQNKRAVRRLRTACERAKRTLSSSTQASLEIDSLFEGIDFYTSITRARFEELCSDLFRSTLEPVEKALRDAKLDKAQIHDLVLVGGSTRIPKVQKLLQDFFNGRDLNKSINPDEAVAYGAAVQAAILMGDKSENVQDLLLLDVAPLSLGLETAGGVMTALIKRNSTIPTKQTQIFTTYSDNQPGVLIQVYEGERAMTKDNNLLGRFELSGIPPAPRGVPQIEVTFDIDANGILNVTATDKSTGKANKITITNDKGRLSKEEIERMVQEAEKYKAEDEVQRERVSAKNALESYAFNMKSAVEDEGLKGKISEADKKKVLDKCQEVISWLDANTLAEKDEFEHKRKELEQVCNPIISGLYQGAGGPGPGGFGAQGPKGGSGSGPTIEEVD
Description: as §1
FIG. 12 is an autoradiograph of LNCaP cells treated with 200 μM capsaicin for 6 h and then lysed and Western blotted for Hsp70, Hsp40 (HDJ-2), and Hsp90β. Capsaicin reduced Hsp40 and Hsp90 binding to Hsp70. Mouse IgG was used as a control.

[13] = system: Hsp90 client proteins (Her2, CDK4, ChK1, Raf-A, Akt, ILK, GR, PR, AR); test: Western blotting of Hsp90 client proteins in cancer cells; assay type: cell-based; conditions: 50, 100, 200 μM capsaicin; HeLa, MCF7, LNCaP cells
Description: as §1, §2

[14] = system: Hsp90α, Hsp90β, Hsp40, p23 and Hop; test: Western blotting of molecular chaperones in cancer cells; assay type: cell-based; conditions: 50, 100, 200 μM capsaicin
Description: as §1, §2

Hsp70 mRNA = test: Gene expression assay (RT-PCR) of Hsp70 mRNA in MCF7 cells; assay type: cell-based
Hsp70 = Hsp70 (Homo sapiens, UniProt P0DMV8); test: Fluorescence emission assay with purified Hsp70; assay type: binding; conditions: Hsp70 15 μM, capsaicin 7.5 μM, 1 h room temperature, excitation 266 nm
Hsp70, sequence (P0DMV8 2-641 limits assumed): as the sequence (P0DMV8 2-641 limits assumed, one chain of several) above
Description: as §3, §4

[15] = system: HCT 116 colon cancer cells; conditions: cited from earlier work

SMILES: C=CCNC1=C2C[C@@H](C)C[C@H](OC)[C@H](O)[C@@H](C)/C=C(\C)[C@H](OC(N)=O)[C@@H](OC)/C=C\C=C(/C)C(=O)NC(=CC1=O)C2=O [17-AAG, 17-allylamino-17-demethoxygeldanamycin]
- cytotoxicity (cell survival) (MCF7 cells [1]): minimal cytotoxicity
- cell killing (relative survival) (LNCaP cells): very little effect or no effect
- IC50 ([2]; Hsp90 from HER-2 overexpressing cells or BT474 breast carcinoma cells): 5 to 6 nM
- higher affinity for Hsp90 derived from transformed cells ([2]; relative to non-tumor cells): more than 100 ×
- GI50 (NCI 60-cell panel): 120 nM

SMILES: CO[C@H]1/C=C\C=C(/C)C(=O)NC2=CC(=O)C(NCCN(C)C)=C(C[C@@H](C)C[C@H](OC)[C@H](O)[C@@H](C)/C=C(\C)[C@@H]1OC(N)=O)C2=O [17-DMAG, 17-Dimethylaminoethylamino-17-demethoxygeldanamycin]
- GI50 (NCI 60-cell panel): 51 nM

SMILES: CC(C)c1cc(-c2n[nH]c(=O)n2-c2ccc3c(ccn3C)c2)c(O)cc1O [Ganetespib]
- cardiac or liver toxicity [3]: no evidence of cardiac or liver toxicity

SMILES: COc1cc(CNC(=O)CCCC/C=C/C(C)C)ccc1O [capsaicin, 8-Methyl-N-vanillyl-trans-6-nonenamide]
- level of Hsc70 [4]: did not change
- level of Hsp70 ([5]; HeLa and MCF7 cells): reduced the level of Hsp70
- degradation of Hsp70 ([5]; HeLa, LNCaP, MCF7, Hs578T and MDA-MB-231, 24 h): reproducibly caused degradation
- level of Hsp70 after 6 h of treatment ([5]; LNCaP cells, 200 μM capsaicin, 6 h (FIG. 12)): not significantly down
- stabilization of Hsp70 protein by autophagy inhibitor 3MA ([5]; capsaicin 200 μM (alone or with 17-AAG) plus 3MA 5 mM, 6 h): almost fully stabilizes
- rescue of Hsp70 protein by proteasome inhibitor MG132 ([5]; capsaicin 200 μM plus MG132 20 μM, 6 h): does not rescue
- Hsp70 protein level ([5]; capsaicin 200 μM, 17-AAG 200 nM (FIG. 7C)): decreased
- LC3II modification (LC3II and p62/SQSTM1; HeLa cells, 200 μM capsaicin 24 h): no LC3II modification
- LC3B modification (LC3II and p62/SQSTM1; LNCaP cells, 50, 100, 200 μM capsaicin 24 h): concentration-dependent induction
- LC3II levels (LC3II and p62/SQSTM1; MCF7 and LNCaP cells, 200 μM capsaicin 24 h): significantly increased
- p62/SQSTM1 protein level (LC3II and p62/SQSTM1; capsaicin treatment, Western blot): accumulation
- cell death of MCF7 cancer cells (MCF7 cells [1]): caused cell death
- cytotoxicity (cell survival) (MCF7 cells [1]): minimal cytotoxicity
- cell killing (relative survival) (LNCaP cells): very little effect or no effect
- solubility in alcohol, fats and oils [6]: freely soluble
- solubility in cold water [6]: insoluble
- mitophagy (MCF7 cells [7]): induced mitophagy
- blocking the hormone-binding activity of PR ([8]; rescreened in triplicates at 20 μM final concentration): about 40%
- modulation of the Hsp90 chaperoning activity ([8]; screen of NIH Clinical Collection library (FIG. 1)): efficient and reproducible modulation
- toxicity symptoms [9]: No toxicity symptoms were observed
- capsaicin fluorescence emission in presence of Hsp40 (Hsp40): may not significantly change
- pharmacokinetic half-life [10]: approximately 24 hours
- capsaicin fluorescence emission in presence of Hsp90 (Hsp90): may not significantly change
- ability of cancer cells to form colonies [11]: efficiently reduces
- Hsp40 and Hsp90 binding to Hsp70 [12]: reduced
- cellular degradation of Hsp90 client proteins [13]: caused cellular degradation
- expression level of molecular chaperones Hsp90α, Hsp90β, Hsp40, p23 and Hop [14]: did not affect
- level of Hsp70 mRNA (Hsp70 mRNA; 100 or 200 μM capsaicin, 24 h (FIG. 5A)): No change
- level of Hsp70 mRNA (Hsp70 mRNA; capsaicin 200 μM, 17-AAG 200 nM (FIG. 7A)): slightly increased
- capsaicin fluorescence emission in presence of Hsp70 (Hsp70): completely quenched

SMILES: COc1cc(CNC(=O)CCCCCCC(C)C)ccc1O [dihydrocapsaicin]
- mitoautophagy [15]: induces mitoautophagy

From patent US20150025052A1, “Compositions and Methods for Inhibiting HSP90/HSP70 Machinery” (Georgia Regents Research Institute, Inc., priority 2013, published 2015)
